Data reported in patent publication US20170150719A1, “FUNGICIDAL PYRAZOLES AND THEIR MIXTURES” (E I DU PONT DE NEMOURS AND COMPANY, priority 2010, published 2017).
Where two headings read alike, the source gives them in different places.

Assays:
[1] = system: Blumeria graminis f. sp. tritici; test: Test I: wheat powdery mildew, preventive spray on wheat seedlings, visual disease rating; settings: Blumeria graminis, in Triticum aestivum, read-out: Test I rating (disease control), wheat powdery mildew; 100 = 100% disease control, 0 = no disease control relative to the controls
Septoria nodorum = test: Test E: Septoria glume blotch, preventive spray on wheat seedlings, visual disease rating; settings: Parastagonospora nodorum, in Triticum aestivum, read-out: Test E rating (disease control), Septoria glume blotch; 100 = 100% disease control, 0 = no disease control relative to the controls
Phytophthora infestans = test: whole plant or invertebrate; format: in vivo; settings: Phytophthora infestans, in Solanum lycopersicum, read-out: Test C rating (disease control)
[2] = system: Blumeria graminis f. sp. tritici; test: Test K (K1-K5): wheat powdery mildew, Compound 81 alone and in mixtures, observed and Colby expected control; format: in vivo; settings: for Test K4 Obsd, disease control rating / Test K5 Obsd, disease control rating: wheat powdery mildew
Botrytis cinerea = test: Test A: tomato Botrytis, preventive spray on tomato seedlings, visual disease rating; settings: Botrytis cinerea, in Solanum lycopersicum, read-out: Test A rating (disease control), tomato Botrytis; 100 = 100% disease control, 0 = no disease control relative to the controls
Septoria tritici [3] = test: Tests N1 and N2: growth inhibition of Septoria tritici on solid medium in 96-well plates, absorbance at 600 nm, observed and Colby expected; format: cell-based; settings: Zymoseptoria tritici; for inhibition at 0.00032 µM: Compound 81 alone 0.00032 μM; for inhibition at 0.0016 µM: Compound 81 alone 0.0016 μM; for inhibition at 0.008 µM: Compound 81 alone 0.008 μM; for inhibition at 0.04 µM: Compound 81 alone 0.04 μM; for inhibition at 0.2 µM: Compound 81 alone 0.2 μM
Text: Tests N1 and N2 involved evaluation of mixtures of Compound 81 with 2-[(3-bromo-8-methyl-6-quinolinyl)oxy]-N-(1,1-dimethyl-2-propyn-1-yl)-2-(methylthio)acetamide (Compound A1) and 2-[(3-bromo-6-quinolinyl)oxy]-N-(1,1-dimethylethyl)butanamide (Compound A2), respectively, for inhibiting the growth of Septoria tritici (the causal agent of wheat leaf blotch). The general protocol for preparing test compositions was as follows. Compound 81 (Tests N1 and N2), Compound A1 (Test N1) and Compound A2 (Test N2) were obtained as unformulated, technical-grade materials. Unformulated test compounds were first dissolved in DMSO at the appropriate concentration to provide the desired concentration (in μM) after mixing with the fungal growth medium in the wells of 96-well plates containing 200 μL fungal growth medium per well. The ranges of compound concentrations were chosen to span a range of inhibitory activity from 0 to near 100% to identify any synergistic action when Septoria tritici was treated with compounds added in combination. The DMSO solutions of the test compounds were added to the wells prior to addition of the fungal growth medium.
The fungal growth solid medium was prepared by forming an aqueous mixture containing dipotassium hydrogen phosphate (3.0 g/L), potassium dihydrogen phosphate (4.0 g/L), sodium chloride (0.5 g/L), ammonium chloride (1.0 g/L), magnesium sulfate heptahydrate ([…]) and calcium chloride dihydrate (0.01 g/L), also containing 1 mL/L of a trace element solution (manganese sulfate hydrate (0.1 mg/mL), zinc sulfate heptahydrate (0.2 mg/mL), copper(II) sulfate pentahydrate (0.2 mg/mL), iron(II) sulfate heptahydrate (0.2 mg/mL), sodium molybdate dihydrate (0.1 mg/mL), cobalt(II) sulfate heptahydrate (0.06 mg/mL), boric acid (0.08 mg/mL)), and supplemented with 50 μL/L of a biotin stock solution (0.1 mg/mL). The pH was adjusted to 6.8 with aqueous 1 M sodium carbonate solution. The mixture was further supplemented with 1 g/L of yeast extract, and GELRITE gellan gum (Kelco) (4 g/L) was added. Sufficient water was added to bring the volume to 90% of final volume (e.g., 900 mL volume for preparation of 1 L of fungal growth medium). The mixture was autoclaved. On cooling to 60° C., 100 mL/L of aqueous dextrose solution (10 g/L), 500 μL/L of aqueous ampicillin solution (100 mg/mL) and 500 μL/L of rifampicin solution (10 mg/mL in DMSO) were added to provide the final volume of fungal growth medium, which was then dispensed while still warm using a microliter pipette to the wells of the 96-well plates. The dispensed fungal growth medium in each well was agitated using the tip of the dispensing pipette to mix it with the DMSO solution containing the test compounds.
After the fungal growth medium in the wells had cooled to room temperature and solidified, the top surface of the growth medium in each well was inoculated with 20 μL of a suspension of fungus containing 8×10^4 cells. Following a 2 h period of drying in a sterile hood, plates were placed in a dark incubator at 25° C. for 5 d.
Fungal growth was assessed on a plate reader set to measure absorbance of 600 nm light. The percent growth inhibition observed (Obsd.) in Tests N1 and N2, as well as the percent growth inhibition expected (Exp.) from calculation using the Colby equation, are listed in Tables L and M, respectively.

Septoria tritici [4] = test: Test M (M1-M5): wheat leaf blotch, Compound 81 alone and in mixtures, observed and Colby expected control; format: in vivo
Alternaria solani = test: Test B: tomato early blight, preventive spray on tomato seedlings, visual disease rating; settings: Alternaria solani, in Solanum lycopersicum, read-out: Test B rating (disease control)
[5] = read-out: % inhibition Obsd. (Test N1)
[6] = read-out: % inhibition Obsd. (Test N2)

SMILES: Cc1nn(C)c(Nc2c(F)cc(Cl)cc2F)c1-c1ccc(F)cc1Cl [Compound 81, N-(4-chloro-2,6-difluorophenyl)-4-(2-chloro-4-fluorophenyl)-1,3-dimethyl-1H-pyrazole-5-amine]
- pest or weed control at 200 µg/mL [1]: 100%
- pest or weed control at 200 µg/mL (Septoria nodorum): 90%
- pest or weed control at 200 µg/mL (Phytophthora infestans): 0%
- Test K1 Obsd ([2]; Compound 81 1 ppm alone): 0%
- Test K2 Obsd ([2]; Compound 81 1 ppm alone): 91%
- Test K3 Obsd ([2]; Compound 81 1 ppm alone): 0%
- Test K1 Obsd ([2]; Compound 81 2 ppm alone): 87%
- Test K2 Obsd ([2]; Compound 81 2 ppm alone): 91%
- Test K3 Obsd ([2]; Compound 81 2 ppm alone): 0%
- Test K1 Obsd ([2]; Compound 81 5 ppm alone): 99%
- Test K2 Obsd ([2]; Compound 81 5 ppm alone): 91%
- Test K3 Obsd ([2]; Compound 81 5 ppm alone): 90%
- Test K1 Obsd ([2]; Compound 81 10 ppm alone): 100%
- Test K2 Obsd ([2]; Compound 81 10 ppm alone): 100%
- Test K3 Obsd ([2]; Compound 81 10 ppm alone): 99%
- Test K4 Obsd, disease control rating ([2]; Compound 81 1 ppm alone): 0%
- Test K5 Obsd, disease control rating ([2]; Compound 81 1 ppm alone): 0%
- Test K4 Obsd, disease control rating ([2]; Compound 81 2 ppm alone): 0%
- Test K5 Obsd, disease control rating ([2]; Compound 81 2 ppm alone): 0%
- Test K4 Obsd, disease control rating ([2]; Compound 81 5 ppm alone): 0%
- Test K5 Obsd, disease control rating ([2]; Compound 81 5 ppm alone): 0%
- Test K5 Obsd, disease control rating ([2]; Compound 81 10 ppm alone): 100%
- pest or weed control at 200 µg/mL (Botrytis cinerea): 100%
- inhibition at 0.00032 µM (Septoria tritici [3]; [5]): 9%
- inhibition at 0.00032 µM (Septoria tritici [3]; [6]): 0%
- inhibition at 0.0016 µM (Septoria tritici [3]; [5]): 5%
- inhibition at 0.0016 µM (Septoria tritici [3]; [6]): 0%
- inhibition at 0.008 µM (Septoria tritici [3]; [5]): 10%
- inhibition at 0.008 µM (Septoria tritici [3]; [6]): 29%
- inhibition at 0.04 µM (Septoria tritici [3]; [5]): 93.5%
- inhibition at 0.04 µM (Septoria tritici [3]; [6]): 93.5%
- inhibition at 0.2 µM (Septoria tritici [3]; [5]): 98%
- inhibition at 0.2 µM (Septoria tritici [3]; [6]): 96%
- Test M1 Obsd, disease control rating (Septoria tritici [4]; Compound 81 0.01 ppm alone): 0%
- Test M2 Obsd, disease control rating (Septoria tritici [4]; Compound 81 0.01 ppm alone): 0%
- Test M1 Obsd, disease control rating (Septoria tritici [4]; Compound 81 0.1 ppm alone): 0%
- Test M2 Obsd, disease control rating (Septoria tritici [4]; Compound 81 0.1 ppm alone): 0%
- Test M1 Obsd, disease control rating (Septoria tritici [4]; Compound 81 1 ppm alone): 86%
- Test M2 Obsd, disease control rating (Septoria tritici [4]; Compound 81 1 ppm alone): 95%
- Test M1 Obsd, disease control rating (Septoria tritici [4]; Compound 81 10 ppm alone): 100%
- Test M2 Obsd, disease control rating (Septoria tritici [4]; Compound 81 10 ppm alone): 100%
- Test M3 Obsd disease control rating (Septoria tritici [4]; Compound 81 alone 0.01 ppm): 0%
- Test M4 Obsd disease control rating (Septoria tritici [4]; Compound 81 alone 0.01 ppm): 0%
- Test M5 Obsd disease control rating (Septoria tritici [4]; Compound 81 alone 0.01 ppm): 0%
- Test M3 Obsd disease control rating (Septoria tritici [4]; Compound 81 alone 0.1 ppm): 0%
- Test M4 Obsd disease control rating (Septoria tritici [4]; Compound 81 alone 0.1 ppm): 23%
- Test M5 Obsd disease control rating (Septoria tritici [4]; Compound 81 alone 0.1 ppm): 3%
- Test M3 Obsd disease control rating (Septoria tritici [4]; Compound 81 alone 1 ppm): 52%
- Test M4 Obsd disease control rating (Septoria tritici [4]; Compound 81 alone 1 ppm): 66%
- Test M5 Obsd disease control rating (Septoria tritici [4]; Compound 81 alone 1 ppm): 90%
- Test M3 Obsd disease control rating (Septoria tritici [4]; Compound 81 alone 10 ppm): 100%
- Test M4 Obsd disease control rating (Septoria tritici [4]; Compound 81 alone 10 ppm): 100%
- Test M5 Obsd disease control rating (Septoria tritici [4]; Compound 81 alone 10 ppm): 100%
- pest or weed control at 200 µg/mL (Alternaria solani): 99%
